According to US4772586A, “Novel derivatives of arginine vasopressin antagonists” (Medical College of Ohio, priority 1986, dated 1988):
*1 amine or outer side, *2 acyl side, *3 side chain or, on linkers, in order; H or OH if unused. Where a SMILES comes first, the peptide text is derived from it. Bridges are numbered along the chain shown (N, C = ends). [ ]: non-standard residue; d: D form. The star is where a group is joined. Ethylenediamine = C(CN[*:2])N[*:1]; X1 = O=C(CC1(S[*:2])CCCCC1)[*:1]; NH(CH2)4NH2 = NCCCCN*; NHCH2CH2OH = OCCN*

Experiments:
[1] = tested on: antidiuretic response to arginine vasopressin; assay: Antagonism of the antidiuretic response to arginine vasopressin (Anti-ADH); format: in vivo, rats; conditions: Table 4; estimated in vivo pA2
Method: Activity as antidiuretic agonists was determined by intravenous injection of the compounds being evaluated in ethanol-anesthesized water-loaded rats in accordance with Sawyer, Endocrinology, vol. 63 (1958) at 694. Antagonism of the antidiuretic response to subsequent injections of arginine vasopressin was tested by the method of Sawyer et al., Science, vol. 212 (1981) at 49.
(§1) Antagonistic potencies were determined and expressed as "effective doses" and pA2 values. The "effective dose" is defined as the dose (in nanomoles per kilogram) that reduces the response seen from 2x units of agonist injected 20 min after the dose of antagonist to the response with 1x units of agonist. Estimated in vivo "pA2 " values represent the negative logarithms of the effective doses, divided by the estimated volume of distribution (67 ml/kg).

[2] = tested on: vasopressor response to arginine vasopressin; assay: Antagonism to the vasopressor response (Anti-VP); format: in vivo; conditions: Table 4; estimated in vivo pA2; ^+ = mixed
Method: Antagonism to the vasopressor response was estimated in accordance with Dyckes et al., J. Med. Chem., vol. 17 (1974) at 969. The values are expressed as pA2 values, defined as in Schild et al., Br. J. Pharmacol., vol. 2 (1947) at 189.
as §1

Compound	Anti-ADH Potency pA2 [1]	Anti-VP Potency pA2 [2]
CCOc1ccc(C[C@H]2NC(=O)CC3(CCCCC3)SSC[C@@H](C(=O)N3CCC[C@H]3C(=O)N[C@@H](CCCNC(=N)N)C(=O)NCCN)NC(=O)[C@H](CC(N)=O)NC(=O)[C@H]([C@@H](C)CC)NC(=O)[C@H](Cc3ccccc3)NC2=O)cc1 [[1-(beta-mercapto-beta,beta-cyclopentamethylenepropionic acid), 2-D-(O-ethyl)tyrosine, 4-isoleucine, 8-arginine-N-(beta-amino)ethylamide, 9-desglycinamide] vasopressin] ([dY](Et)FINCPR-Ethylenediamine; linker N-5 via X1)	8.00 ± 0.12	8.33 ± 0.06
CCOc1ccc(C[C@H]2NC(=O)CC3(CCCCC3)SSC[C@@H](C(=O)N3CCC[C@H]3C(=O)N[C@@H](CCCNC(=N)N)C(=O)NCCO)NC(=O)[C@H](CC(N)=O)NC(=O)[C@H]([C@@H](C)CC)NC(=O)[C@H](Cc3ccccc3)NC2=O)cc1 [[1-(beta-mercapto-beta,beta-cyclopentamethylenepropionic acid), 2-D-(O-ethyl)tyrosine, 4-isoleucine, 8-arginine-N-(beta-hydroxy)ethylamide, 9-desglycinamide] vasopressin] ([dY](Et)FINCPR-NHCH2CH2OH; linker N-5 via X1)	7.82 ± 0.06	7.89 ± 0.09
CCOc1ccc(C[C@H]2NC(=O)CC3(CCCCC3)SSC[C@@H](C(=O)N3CCC[C@H]3C(=O)N[C@@H](CCCNC(=N)N)C(=O)NCCCCN)NC(=O)[C@H](CC(N)=O)NC(=O)[C@H]([C@@H](C)CC)NC(=O)[C@H](Cc3ccccc3)NC2=O)cc1 [[1-(beta-mercapto-beta,beta-cyclopentamethylenepropionic acid), 2-D-(O-ethyl)tyrosine, 4-isoleucine, 8-arginine-N-(delta-amino)butylamide,9-desglycinamide] vasopressin] ([dY](Et)FINCPR-{NH(CH2)4NH2}; linker N-5 via X1)	7.68 ± 0.05	7.78 ± 0.4
CCOc1ccc(C[C@H]2NC(=O)CC3(CCCCC3)SSC[C@@H](C(=O)N3CCC[C@H]3C(=O)N[C@@H](CCCNC(=N)N)C(=O)NCC(=O)NCCN)NC(=O)[C@H](CC(N)=O)NC(=O)[C@H]([C@@H](C)CC)NC(=O)[C@H](Cc3ccccc3)NC2=O)cc1 [[1-(beta-mercapto-beta,beta-cyclopentamethylenepropionic acid), 2-D-(O-ethyl)tyrosine, 4-isoleucine, 9-glycine-N-(beta-amino)ethylamide]-arginine vasopressin] ([dY](Et)FINCPRG-Ethylenediamine; linker N-5 via X1)	7.86 ± 0.04	8.07 ± 0.03
CCOc1ccc(C[C@H]2NC(=O)CC3(CCCCC3)SSC[C@@H](C(=O)N3CCC[C@H]3C(=O)N[C@@H](CCCNC(=N)N)C(=O)N[C@@H](C)C(=O)NC)NC(=O)[C@H](CC(N)=O)NC(=O)[C@H](C(C)C)NC(=O)[C@H](Cc3ccccc3)NC2=O)cc1 [[1-(beta-mercapto-beta,beta-cyclopentamethylenepropionic acid), 2-D-(O-ethyl)tyrosine, 4-valine, 9-alanine-N-methylamide]-arginine vasopressin] ([dY](Et)FVNCPRA-NHMe; linker N-5 via X1)	7.92 ± 0.06	8.17 ± 0.04
CCOc1ccc(C[C@H]2NC(=O)CC3(CCCCC3)SSC[C@@H](C(=O)N3CCC[C@H]3C(=O)N[C@@H](CCCNC(=N)N)C(=O)NCC(=O)NC)NC(=O)[C@H](CC(N)=O)NC(=O)[C@H](C(C)C)NC(=O)[C@H](Cc3ccccc3)NC2=O)cc1 [[1-(beta-mercapto-beta,beta-cyclopentamethylenepropionic acid), 2-D-(O-ethyl)tyrosine, 4-valine, 9-glycine-N-methylamide]-arginine vasopressin] ([dY](Et)FVNCPRG-NHMe; linker N-5 via X1)	7.58 ± 0.06	7.71 ± 0.04
